Experimental data reported in PubChem BioAssay AID248 (DTP/NCI, 2004).
Values joined by “and” are separate entries in the source; they are usually repeats but may differ in a detail not shown here. Equal entries are not always repeated. Inconclusive results and toxic doses are left out.

Test system: L1210 leukemia ip in BDF1 mice, survival T/C
Assay: NCI In Vivo Anticancer Drug Screen. Data for tumor model L1210 Leukemia (intraperitoneal) in B6D2F1 (BDF1) mice
Settings: endpoint: mean survival time, higher = longer survival
In short: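 Mice bearing the transplanted tumor received compound or vehicle. Survival of the treated group was divided by that of the vehicle-treated control group to give the ratio.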

[1] = dose: 25.0 mg/kg/injection, schedule: Q01DX009 (ip), vehicle: saline
[2] = dose: 30.0 mg/kg/injection, schedule: Q01DX Z (ip), vehicle: saline
[3] = dose: 50.0 mg/kg/injection, schedule: Q01DX009 (ip), vehicle: saline
[4] = dose: 100.0 mg/kg/injection, schedule: Q01DX009 (ip), vehicle: Klucel (hydroxypropylcellulose) (HPC)
[5] = dose: 100.0 mg/kg/injection, schedule: Q04DX003 (ip), vehicle: Klucel (hydroxypropylcellulose) (HPC)
[6] = dose: 100.0 mg/kg/injection, schedule: Q04DX003 (ip), vehicle: saline
[7] = dose: 200.0 mg/kg/injection, schedule: Q01DX009 (ip), vehicle: Klucel (hydroxypropylcellulose) (HPC)
[8] = dose: 200.0 mg/kg/injection, schedule: Q01DX009 (ip), vehicle: saline
[9] = dose: 200.0 mg/kg/injection, schedule: Q04DX003 (ip), vehicle: Klucel (hydroxypropylcellulose) (HPC)
[10] = dose: 200.0 mg/kg/injection, schedule: Q04DX003 (ip), vehicle: saline
[11] = dose: 400.0 mg/kg/injection, schedule: Q01DX009 (ip), vehicle: Klucel (hydroxypropylcellulose) (HPC)
[12] = dose: 400.0 mg/kg/injection, schedule: Q04DX003 (ip), vehicle: saline
[13] = dose: 100.0 mg/kg/injection, schedule: Q01DX009 (ip), vehicle: saline
[14] = dose: 100.0 mg/kg/injection, schedule: Q01DX001 (ip), vehicle: saline
[15] = dose: 200.0 mg/kg/injection, schedule: Q01DX001 (ip), vehicle: saline
[16] = dose: 400.0 mg/kg/injection, schedule: Q01DX001 (ip), vehicle: saline
[17] = dose: 100.0 mg/kg/injection, schedule: Q04DX003 (ip), vehicle: saline with Tween-80
[18] = dose: 200.0 mg/kg/injection, schedule: Q04DX003 (ip), vehicle: saline with Tween-80
[19] = dose: 400.0 mg/kg/injection, schedule: Q04DX003 (ip), vehicle: saline with Tween-80
[20] = dose: 400.0 mg/kg/injection, schedule: Q04DX003 (ip), vehicle: Klucel (hydroxypropylcellulose) (HPC)
[21] = dose: 100.0 mg/kg/injection, schedule: Q01DX001 (ip), vehicle: Klucel (hydroxypropylcellulose) (HPC)
[22] = dose: 200.0 mg/kg/injection, schedule: Q01DX001 (ip), vehicle: Klucel (hydroxypropylcellulose) (HPC)
[23] = dose: 400.0 mg/kg/injection, schedule: Q01DX001 (ip), vehicle: Klucel (hydroxypropylcellulose) (HPC)

For `COC(=O)C1(N)CCCC1`, the T/C (dose: 11.0 mg/kg/injection, schedule: Q01DX Z (ip), vehicle: carboxymethylcellulose (CMC)) was 94 % of control, the T/C (dose: 22.0 mg/kg/injection, schedule: Q01DX Z (ip), vehicle: carboxymethylcellulose (CMC)) was 107 % of control and the T/C [1] was 107 % of control. For the same molecule, the T/C (dose: 30.0 mg/kg/injection, schedule: Q01DX009 (ip), vehicle: saline) was 108 % of control, the T/C [2] was 116 % of control and the T/C (dose: 44.0 mg/kg/injection, schedule: Q01DX009 (ip), vehicle: saline) was 121 % of control. For the same molecule, the T/C (dose: 45.0 mg/kg/injection, schedule: Q01DX Z (ip), vehicle: saline) was 118 % of control, the T/C [3] was 109 % of control and the T/C [4] was 95 % of control. For the same molecule, the T/C [5] was 104 % of control and 113 % of control, the T/C [6] was 102 % of control and the T/C (dose: 150.0 mg/kg/injection, schedule: Q01DX009 (ip), vehicle: saline) was 95 % of control. The T/C (dose: 150.0 mg/kg/injection, schedule: Q01DX Z (ip), vehicle: saline) was 104 % of control, the T/C [7] was 104 % of control and the T/C [8] was 119 % of control and 120 % of control. For the same molecule, the T/C [9] was 121 % of control and 124 % of control, the T/C [10] was 118 % of control and the T/C (dose: 300.0 mg/kg/injection, schedule: Q01DX Z (ip), vehicle: carboxymethylcellulose (CMC)) was 105 % of control and 115 % of control. For the same molecule, the T/C [11] was 121 % of control, the T/C (dose: 400.0 mg/kg/injection, schedule: Q01DX009 (ip), vehicle: saline) was 98 % of control and 102 % of control and the T/C (dose: 400.0 mg/kg/injection, schedule: Q01DX Z (ip), vehicle: carboxymethylcellulose (CMC)) was 113 % of control. The T/C [12] was 152 % of control and the T/C (dose: 500.0 mg/kg/injection, schedule: Q01DX Z (ip), vehicle: carboxymethylcellulose (CMC)) was 110 % of control.
In the case of `COC1CN(C(C)(C)C)C1`, the T/C [6] is reported as 103 % of control.
For `CCCP(=O)(CCC)C1CCCCC1`, the T/C (dose: 100.0 mg/kg/injection, schedule: Q01DX001 (ip), vehicle: saline with Tween-80) was 99 % of control, the T/C (dose: 200.0 mg/kg/injection, schedule: Q01DX001 (ip), vehicle: saline with Tween-80) was 98 % of control and the T/C (dose: 400.0 mg/kg/injection, schedule: Q01DX001 (ip), vehicle: saline with Tween-80) was 86 % of control.
For `CCCCC(/C=N/N=C(N)N)=N\N=C(N)N`, the T/C (dose: 15.0 mg/kg/injection, schedule: Q01DX Z (ip), vehicle: saline) was 95 % of control, the T/C (dose: 15.0 mg/kg/injection, schedule: Q01DX Z (oral), vehicle: saline) was 98 % of control and the T/C [2] was 103 % of control. The T/C (dose: 30.0 mg/kg/injection, schedule: Q01DX Z (oral), vehicle: saline) was 91 % of control, the T/C (dose: 60.0 mg/kg/injection, schedule: Q01DX Z (oral), vehicle: saline) was 91 % of control and the T/C (dose: 120.0 mg/kg/injection, schedule: Q01DX Z (oral), vehicle: saline) was 94 % of control.
For `COc1ccc(N2C(=O)C3C4c5ccccc5C(C3C2=O)[n+]2ccccc24)cc1` (stereo unspecified), the T/C [6] was 97 % of control and the T/C [10] was 103 % of control.
For `CCCCCCCCC/C(C)=N/NC(=O)c1ccc[n+](C)c1`, the T/C [3] was 93 % of control, the T/C [13] was 93 % of control and the T/C [8] was 96 % of control.
In the case of `C=C1C(=O)OC2/C=C(/C)C(OC(C)=O)CC(O)/C(C)=C\C(OC(=O)/C(C)=C\C)C12` (stereo unspecified), the T/C (dose: 40.0 mg/kg/injection, schedule: Q01DX009 (ip), vehicle: carboxymethylcellulose (CMC)) is reported as 101 % of control, the T/C (dose: 60.0 mg/kg/injection, schedule: Q01DX009 (ip), vehicle: carboxymethylcellulose (CMC)) is reported as 104 % of control and the T/C (dose: 80.0 mg/kg/injection, schedule: Q01DX009 (ip), vehicle: carboxymethylcellulose (CMC)) is reported as 104 % of control. The T/C (dose: 100.0 mg/kg/injection, schedule: Q01DX009 (ip), vehicle: carboxymethylcellulose (CMC)) was 98 % of control.
With `CCOC(=O)C(C(=O)OCC)C(=O)c1cccc2c1ccc1ccccc12` the T/C (dose: 100.0 mg/kg/injection, schedule: Q04DX002 (ip), vehicle: saline with Tween-80) was 95 % of control, the T/C (dose: 200.0 mg/kg/injection, schedule: Q04DX002 (ip), vehicle: saline with Tween-80) was 107 % of control and the T/C (dose: 400.0 mg/kg/injection, schedule: Q04DX002 (ip), vehicle: saline with Tween-80) was 100 % of control.
With `CS(=O)(=O)OC1COC(c2ccccc2)OC1C1OC(c2ccccc2)OCC1OS(C)(=O)=O` (stereo unspecified) the T/C (dose: 50.0 mg/kg/injection, schedule: Q04DX002 (ip), vehicle: Klucel (hydroxypropylcellulose) (HPC)) was 98 % of control, the T/C (dose: 100.0 mg/kg/injection, schedule: Q04DX002 (ip), vehicle: Klucel (hydroxypropylcellulose) (HPC)) was 98 % of control and the T/C (dose: 200.0 mg/kg/injection, schedule: Q04DX002 (ip), vehicle: Klucel (hydroxypropylcellulose) (HPC)) was 109 % of control.
`CC(C)CC[n+]1ccc(C(N)=O)cc1` was tested, and the T/C [14] was 97 % of control, the T/C [6] was 98 % of control and the T/C [15] was 100 % of control. For the same molecule, the T/C [10] was 97 % of control, the T/C [16] was 95 % of control and the T/C [12] was 104 % of control.
With `O=Cc1[nH]c(=S)[nH]c(=O)c1Cc1ccc([N+](=O)[O-])cc1` the T/C [17] was 93 % of control, the T/C [18] was 92 % of control and the T/C [19] was 100 % of control.
`O=C(NCCBr)C(F)(F)F` was tested, and the T/C [1] was 113 % of control, the T/C [3] was 103 % of control and the T/C [14] was 104 % of control. For the same molecule, the T/C [13] was 105 % of control, the T/C [15] was 109 % of control and the T/C [16] was 112 % of control.
`O=S(=O)(NC1CCC(CC2CCCCC2)CC1)c1ccccc1` (stereo unspecified) was tested, and the T/C [4] was 101 % of control, the T/C [5] was 96 % of control and the T/C [7] was 104 % of control. The T/C [9] was 97 % of control, the T/C [11] was 106 % of control and the T/C [20] was 94 % of control.
`FC1(F)C2Cc3ccccc3C2C1(F)F` (stereo unspecified) was tested, and the T/C [5] was 96 % of control, the T/C [9] was 98 % of control and the T/C [20] was 100 % of control.
For `NC(CSC(c1ccccc1)(c1ccccc1)c1ccccc1)C(=O)OC(c1ccccc1)c1ccccc1` (stereo unspecified), the T/C (dose: 264.0 mg/kg/injection, schedule: Q01DX001 (ip), vehicle: carboxymethylcellulose (CMC)) was 113 % of control.
In the case of `Nc1ccc(C(=O)N/N=C/c2ccc(N(CCBr)CCBr)cc2)cc1`, the T/C (dose: 12.5 mg/kg/injection, schedule: Q01DX Z (ip), vehicle: carboxymethylcellulose (CMC)) is reported as 124 % of control, the T/C [14] is reported as 98 % of control and the T/C [15] is reported as 108 % of control.
With `CN(C)C(=O)c1cccc(COc2ccc(N)cc2Cl)c1` the T/C [6] was 96 % of control and the T/C [10] was 106 % of control.
With `Nc1nc(=S)c2ncn(C3OC(CO)CC3O)c2[nH]1` (stereo unspecified) the T/C (dose: 10.0 mg/kg/injection, schedule: Q01DX009 (ip), vehicle: other) was 160 % of control, the T/C (dose: 88.8 mg/kg/injection, schedule: Q01DX001 (ip), vehicle: carboxymethylcellulose (CMC)) was 162 % of control and the T/C (dose: 200.0 mg/kg/injection, schedule: Q01DX001 (ip), vehicle: carboxymethylcellulose (CMC)) was 189 % of control.
In the case of `CCSC(=S)n1c2ccccc2c2ccccc21`, the T/C [21] is reported as 98 % of control, the T/C [4] is reported as 101 % of control and the T/C [22] is reported as 101 % of control. The T/C [7] was 96 % of control, the T/C [23] was 92 % of control and the T/C [11] was 101 % of control.
With `NC(CS(=O)c1ccc([N+](=O)[O-])cc1Cl)C(=O)O` (stereo unspecified) the T/C [17] was 103 % of control, the T/C [18] was 95 % of control and the T/C [19] was 101 % of control.
`C/C(=N\NC(=S)Nc1cc(Cl)ccc1Cl)c1cc([N+](=O)[O-])c(O)cc1O` was tested, and the T/C [21] was 104 % of control, the T/C [22] was 101 % of control and the T/C [23] was 93 % of control.
`CC(NC(=O)Nc1ccccc1Cl)c1ccccc1` (stereo unspecified) was tested, and the T/C [4] was 105 % of control, the T/C [7] was 105 % of control and the T/C [11] was 102 % of control.
`O=[As](O)(O)c1ccc(Cl)cc1C(F)(F)F` was tested, and the T/C (dose: 6.25 mg/kg/injection, schedule: Q04DX003 (ip), vehicle: Klucel (hydroxypropylcellulose) (HPC)) was 97 % of control, the T/C (dose: 12.5 mg/kg/injection, schedule: Q04DX003 (ip), vehicle: Klucel (hydroxypropylcellulose) (HPC)) was 100 % of control and the T/C (dose: 25.0 mg/kg/injection, schedule: Q04DX003 (ip), vehicle: Klucel (hydroxypropylcellulose) (HPC)) was 101 % of control and 103 % of control. For the same molecule, the T/C [5] was 101 % of control and the T/C [9] was 103 % of control.
